This note sets out measurements from ChEMBL document CHEMBL4732087, “Structure-activity relationship (SAR) studies of N-(3-methylpyridin-2-yl)-4-(pyridin-2-yl)thiazol-2-amine (SRI-22819) as NF-ҡB activators for the treatment of ALS” (Eur J Med Chem, 2021).

Data set [1] can be described thus: Kinetic solubility of compound at pH 7.4 by shake flask method. Format: physicochemical. The note with it: buffer, read-out: Kinetic_solubility.
A short description of data set [2]: Drug concentration in CD1 mouse brain at 1 mg/kg, iv measured at […] by LC-MS/MS analysis. The data set is classed as ADME, organism-based. The following applies: time 0.25 hrs, read-out: Ct.
Data set [3] in a line: Drug concentration in CD1 mouse brain at 1 mg/kg, iv measured at 0.5 hrs by LC-MS/MS analysis. Format: ADME, organism-based. The following applies: read-out: Ct.
A short description of data set [4]: Drug concentration in CD1 mouse plasma at 1 mg/kg, iv measured at […] by LC-MS/MS analysis. The following applies: time 0.25 hrs. The data set is classed as ADME, organism-based.
The nature of data set [5]: Drug concentration in CD1 mouse plasma at 1 mg/kg, iv measured at 0.5 hrs by LC-MS/MS analysis. Format: ADME, organism-based.
Data set [6] is described as follows: Ratio of drug concentration in brain to plasma in CD1 mouse at 1 mg/kg, iv measured at […] by LC-MS/MS analysis. Format: ADME, organism-based. The note with it: time 0.25 hrs.
Data set [7] is described as follows: Ratio of drug concentration in brain to plasma in CD1 mouse at 1 mg/kg, iv measured at 0.5 hrs by LC-MS/MS analysis. The data set is classed as ADME, organism-based.
Data set [8] is described as follows: Cmax in CD1 mouse at 5 mg/kg, po by LC-MS/MS analysis. Format: ADME, organism-based. Further details: route oral, dose 5 mg/kg. The following applies: in vivo.
A short description of data set [9]: Oral bioavailability in CD1 mouse at 5 mg/kg by LC-MS/MS analysis. Format: ADME, organism-based. The following applies: in vivo.

Converted amounts (≈) assume the structure as drawn. Some results are limits rather than exact numbers.

For `Fc1cccnc1Nc1nc(-c2ccccn2)cs1`, the solubility kinetic in [1] came out at 45.4 µM (≈ 12.4 µg/mL).

For `O=C(O)c1cccc(-c2noc(-c3ccccc3F)n2)c1`, the solubility kinetic in [1] was 70.5 µM (≈ 20 µg/mL).

Broadly, the Kp is the ratio of the level in a tissue or fluid to that in plasma or blood. As to `NCc1cccc(-c2cnc(Nc3ccc(F)cc3)o2)c1`, the solubility kinetic in data set [1] stood at 50.8 µM (≈ 14.4 µg/mL). The values for the concentration at […] in data set [2] and in data set [4] were 473 ng/g and 32.8 ng/mL, respectively. Also, the concentration at 0.5 h in [3] is 297 ng/g; in data set [5] it was 21 ng/mL. The partition ratio (Kp) at […] in data set [6] amounted to 14.5. For the same compound, the Kp at 0.5 h in data set [7] stood at 14.3.

Take `COC(=O)c1ccc(-c2cnc(Nc3ccccc3F)o2)cc1`: the solubility kinetic in data set [1] is under 1 µM.

As a reminder, the Cmax is the peak of the concentration-time curve. The term bioavailability denotes the share of a dose that reaches the circulation, judged against a reference dose that is usually intravenous. High values mean much systemic uptake, low ones little systemic uptake. `O=C(O)c1cccc(-c2cnc(Nc3ccccc3F)o2)c1`: the concentration in data set [8] peaked (Cmax) at 92 ng/mL. Also, in [9], the bioavailability turned out to be 15.6%.

For the compound `O=C(O)c1cccc(-c2cnc(-c3ccccc3F)o2)c1`, the solubility kinetic in data set [1] stood at 69.5 µM (≈ 19.7 µg/mL).

As to `COC(=O)c1cccc(-c2cnc(Nc3ccc(F)cc3)o2)c1`, the solubility kinetic in [1] was under 1 µM.

`CN(c1ccc(F)cc1)c1ncc(-c2cccc(C(=O)O)c2)o1`: in [1], the solubility kinetic worked out at 277 µM (≈ 86.5 µg/mL). Also, the concentration at […] in data set [2] was found to be 16.4 ng/g; in data set [4] it was 788 ng/mL. The concentration at 0.5 h in data set [3] amounted to 7.27 ng/g; in data set [5], 529 ng/mL. The Kp at […] in data set [6] was 0.0213. In addition, in [7], the Kp at 0.5 h was 0.0137.

Turning to `O=C(O)c1cccc(-c2csc(Nc3ccccc3)n2)c1`, the solubility kinetic in data set [1] was 70.2 µM (≈ 20.8 µg/mL).

In the case of `Fc1cccc(-c2csc(Nc3ccccc3F)n2)c1`, the solubility kinetic in data set [1] was under 1 µM.

`COc1cccnc1Nc1nc(-c2ccccn2)cs1`: the solubility kinetic in data set [1] is 1.2 µM (≈ 0.341 µg/mL).

Turning to `O=C(O)c1cccc(-c2cnc(Nc3ccc(F)cc3F)o2)c1`, the solubility kinetic in data set [1] was determined as 69 µM (≈ 21.8 µg/mL).

For `Fc1ccccc1Nc1nc(-c2ccccc2)cs1`, the solubility kinetic in data set [1] is under 1 µM.

On to `O=C(O)c1cccc(-c2nc(Nc3ccccc3F)cs2)c1`, for which, in data set [1], the solubility kinetic was over 100 µM.

As to `O=C(O)c1cccc(-c2csc(Nc3ccc(F)cc3)n2)c1`, in data set [1], the solubility kinetic was determined as 77.7 µM (≈ 24.4 µg/mL).

For `CNC(=O)c1cccc(-c2cnc(Nc3ccc(F)cc3)o2)c1`, the solubility kinetic in data set [1] turned out to be 3.1 µM (≈ 0.965 µg/mL).

Regarding `Nc1cccc(-c2cnc(Nc3ccc(F)cc3)o2)c1`, the solubility kinetic in [1] is 15.2 µM (≈ 4.09 µg/mL).

As for `OCc1cccc(-c2csc(Nc3ccccc3F)n2)c1`, the solubility kinetic in [1] came out at 30.9 µM (≈ 9.28 µg/mL).

Take `Cc1noc(-c2cccc(-c3cnc(Nc4ccc(F)cc4)o3)c2)n1`: the concentration at […] in [2] is 821 ng/g; in data set [4] it was 119 ng/mL. Besides, the concentration at 0.5 h in data set [3] was found to be 357 ng/g; in data set [5], 74.4 ng/mL. The Kp at […] in data set [6] is 6.93. Also, the Kp at 0.5 h in data set [7] came to 4.81.

On to `CC(=O)Nc1cccc(-c2cnc(Nc3ccc(F)cc3)o2)c1`, for which, in [1], the solubility kinetic worked out at 5 µM (≈ 1.56 µg/mL).

`O=C(O)c1cccc(-c2csc(Nc3ccccc3F)n2)c1` registered a Cmax in data set [8] of 101 ng/mL. Moreover, in [9], the bioavailability came out at 26.6%. The solubility kinetic in data set [1] was 80.9 µM (≈ 25.4 µg/mL).

`CNC(=O)c1cccc(-c2cnc(N(C)c3ccc(F)cc3)o2)c1`: the solubility kinetic in [1] was 60.4 µM (≈ 19.7 µg/mL). For the same compound, the concentration at […] is 200 ng/g in data set [2] and 164 ng/mL in data set [4]. Also, the concentration at 0.5 h in data set [3] stood at 30.9 ng/g; in data set [5], 31.1 ng/mL. In addition, the concentration ratio (Kp) at […] in data set [6] turned out to be 1.21. For the same compound, the partition ratio (Kp) at 0.5 h in [7] worked out at 1.02.

In the case of `O=C(O)c1ccc(-c2csc(-c3ccccc3F)n2)cc1`, in data set [1], the solubility kinetic is 38.4 µM (≈ 11.5 µg/mL).

Turning to `Cc1cccnc1Nc1ncc(-c2ccccn2)o1`, the solubility kinetic in [1] is 72.5 µM (≈ 18.3 µg/mL).

For `O=C(O)c1cccc(-c2csc(-c3ccccc3F)n2)c1`, in [1], the solubility kinetic amounted to 55.2 µM (≈ 16.5 µg/mL).

In the case of `COC(=O)c1cccc(-c2cnc(Nc3cccc(F)c3)o2)c1`, the solubility kinetic in data set [1] is under 1 µM.

In the case of `COc1cccc(-c2csc(Nc3ccccc3F)n2)c1`, the solubility kinetic in data set [1] stood at 49.3 µM (≈ 14.8 µg/mL).
